Test results as given in patent US8399466B2, “Composition for regenerative treatment of cartilage disease” (Mitsubishi Tanabe Pharma Corporation, priority 2001, dated 2013).

Legend:
[1] = test system: cAMP hydrolytic PDE expressed in human articular cartilage (fraction Nos. 28-30); experiment: Inhibition of cAMP hydrolyzing activity of fraction Nos. 28-30 of human articular cartilage extract; type: biochemical
Description: From the human knee articular cartilage was isolated on surgery of osteoarthrosis patients. Cartilage portion was scrapped with a surgery knife, washed with ice-cold phosphate buffer and stored at −80° C. The cartilage tissues were milled at −80° C. and then, scattered into pieces with homogenizer (Kinematica A.G., Polytron) in ice-cold homogenization buffer (20 mM Tris-HCl, pH 8.0, 1 mM ethylene glycol bis(β-aminoethylether)-N,N,N′,N′-tetraacetic acid, 1 mM dithiothreitol, 10 μg/ml leupeptin, 5 mM benzamidine, 0.2 mM phenylmethylsulfonyl fluoride, 1 mM sodium azide and 5 mM mercaptoethanol). The resultant homogenate was centrifuged (100,000×g; 30 minutes) to separate supernatant.
The above supernatant was loaded on a Mono Q Sepharose High Performance column (Amersham Pharmacia Biotech) equilibrated with elution buffer (20 mM Tris-HCl, pH 8.0, 1 mM ethylene glycol bis(β-aminoethylether)-N,N,N′,N′-tetraacetic acid, 1 mM dithiothreitol, 2 μg/ml leupeptin, 5 mM benzamidine). After washing the column with 20 ml of elution buffer, proteins were eluted into 1 ml fractions by aqueous sodium chloride solution (concentration gradient: 0 to 1000 mM, 70 ml) under ice-cooling. Each fraction was subjected to the determination of hydrolytic activity (PDE activity) toward cAMP and cGMP as a substrate.
The determination of PDE activity was performed by a radio-labeled nucleic acid assay. That is, the reaction was initiated by adding from 10 to 50 μl of elution fraction to 500 μl of assay buffer (50 mM Tris-HCl, pH 8.0, 5 mM magnesium chloride, 4 mM 2-mercaptoethanol) containing 1 μM of unlabeled cAMP and 22 nM of [^3H]-cAMP (Amersham Pharmacia Biotech).
After incubation at 37° C. for 30 minutes, the reaction was quenched by boiling for 1.5 minutes. Then, 100 μl of 1 mg/ml Crtalus atrox snake venom was added and incubated at 37° C. for 30 minutes. After addition of 500 μl of methanol, the reaction solution was subjected to Dowex column (1×8-400). To each eluate was added a liquid scintillation cocktail and the radio activity was measured.
The inhibitory activity of PDE4 inhibitor on fraction Nos. 28-30 containing potent cAMP hydrolyzing activity was measured according to the above-mentioned radio-labeled nucleic acid assay. The test compounds are Compound (1), Compound (2), Compound (11), Compound (44) and Compound (27).

[2] = test system: gonarthrosis induced by partial excision of medial meniscus/abscission of bilateral collateral ligaments; experiment: Regenerative healing effects on gonarthrosis induced by partial excision of medial meniscus/abscission of bilateral collateral ligaments; type: in vivo, rabbit; conditions: 1 μg in microsphere of Example 7-(1), intra-articular two and six weeks after operation; ten weeks after operation; control 18.86 ± 2.03
Description: Japanese White rabbits (male; 10-week-old; 7 rabbits/group) were housed for 16 days at room temperature (23±2° C.) and 55±15% humidity. During the housing period, the rabbits were free to access commercially available food (Oriental Bio Service; LRC4).
Under ether anesthesia, the right knee joint of each rabbit was excised and ½ portion of medial meniscus was isolated with double-edged small straight scissors. The bilateral collateral ligaments were also cut. After the operation, muscle and epidermal tissues were sutured and sterilized. Two weeks from the operation, under ether anesthesia, each rabbit of the test group (7 rabbits/group) was administered intra-articularly the drug-containing microsphere prepared in Example 7-(1), which contains 1 μg of Compound (2). The rabbit of the control group (7 rabbits/group) received the same amount of drug-free microsphere prepared in Control Example 2. […]
After wiping off the excess India Ink, the overhead surface image of the formalin-fixed tibial proximal end was imported into an analyzer, Image Analyzer (IMAGING RESEARCH, MICD imaging analyzer), with a stereomicroscope (OLYMPUS OPTICAL Co., Ltd. model SZX12-2111). […] The gross medial area was also measured and the percentage (%) (the degenerated area rate) of the degenerated medial area in the gross medial area was calculated.

CCOc1cc2cc(CO)c(CO)c(-c3ccnc(-n4nc(-c5cccnc5)c5ccccc5c4=O)c3)c2cc1OCC [Compound (2)]
inhibition of the hydrolytic activity of the fraction ([1]; fraction Nos. 28-30, FIG. 4): inhibits the hydrolytic activity of the fraction strongly
IC50 for fraction(s) ([1]; method of Journal of Medicinal Chemistry, vol. 42, 1088-1099 (1999), values only in FIG. 4): consistent with the IC50 of PDE4 inhibition activity described in the same literature
Degenerated Area Rate (%) [2]: 10.16 ± 1.35%
